According to US4795754A, “3-(1H-tetrazol-5-y1)oxanilic acid and salts thereof and pharmaceutical compositions containing them” (Wakamoto Pharmaceutical Co., Ltd., priority 1986, dated 1989):
Read-outs that look alike come from different tables or passages of the source.

Assays:
[1] = Japanese Journal of Pharmacology, 1982, Vol. 32, pp. 689-697; cited from earlier work
[2] = tested on: metachromatic cells in nasal mucus; assay: Degranulation inhibitory effect on metachromatic cells in nasal mucus, experimental allergic rhinitis (Test 2); type: in vivo, Wistar rats; conditions: intranasal 0.5 ml/100 g, 5 minutes before antigen, average of 5
Method: This test was carried out to examine the degranulation inhibitory effect of the compounds of the present invention on the metachromatic cells in nasal mucus originated from a rat suffering from experimental allergic rhinitis.
Wistar rats were passively sensitized by subcutaneously injecting anti-Cryptomeria Japonica-Ascaris serum of rat. After anesthetizing the rat with pentobarbital sodium, they were fixed while lying them on their back and the cervixes thereof were subjected to median incision. A polyethylene tube having an outer diameter of 1 mm was inserted into the internal nares of each rat through the incised portion of trachea, one end thereof was connected to a perfusion pump and sterilized physiologic saline warmed at 37° C. was perfused therethrough at a flow rate of 0.25 ml/min. 1 ml of the antigen extracted from pollen of Japanese cedar (10 micro liter per ml) was sprayed in both internal nares by means of an atomizer for internal nares and the perfusate delivered from the internal nares was recovered for 20 minutes. The number of degranulated cells per 100 metachromatic cells present in the recovered samples were scored and the value was regarded as that of the control (Nc).
The compound to be tested were dissolved in 0.15M phosphate buffer so as to obtain a solution of a desired concentration, each solution was administered through both of the interanal nares in an amount of 0.5 ml/100 g body weight, at a time 5 minutes before the spray of the antigen and the number of degranulated cells (Nt) was scored according to the same manner as described above. The rate of inhibitory effect on the degranulation (Rd) was estimated from the following relation: [formula] Each experimental results is the average of 5 measurements.

[3] = tested on: allergic conjunctivitis of guinea pigs; assay: Allergic conjunctivitis, histamine content in lacrimal fluid (Test 4); type: in vivo, Hartley guinea pigs
Method: (§1) This test was carried out to estimate the therapeutic effect of the compounds according to the present invention on the allergic conjunctivitis of guinea pigs.
(§2) Hartley guinea pigs were passively sensitized by intravenously injecting 1 ml of anti-DNP-As serum. After 8 days, an antigen solution (DNP-BSA: 2.5 mg/ml) was dropped on the sinistral eye once a minute over 10 minutes, then the lacrimal fluid was collected with filter paper over 10 minutes while the inflammatory reaction of the eye was visually observed during the collection of the lacrimal fluid. At 10 minutes after the completion of the dropping of the antigen solution, the compounds to be examined were dropped on the eye once a minute over 10 minutes and thereafter the collection of the lacrimal fluid and the visual observation of the inflammatory reaction of the eye were likewise effected. Then, the amount of histamine present in the collected lacrimal fluid was determined according to the Komatsu's method (Michitoshi KOMATSU, Allergy, 1978, Vol. 27, pp. 67-74).
(§3) In addition, the concentration of MTCC used was 10^-3 g/ml and that of DSCG was 2×10^-2 g/ml.

[4] = tested on: rats suffering from experimental allergic rhinitis; assay: Nasal mucus secretion inhibitory effect, experimental allergic rhinitis (Test 3); type: in vivo, Wistar rats; conditions: brilliant blue in nasal perfusate, average of 5
Description: This test was effected to examine the nasal mucus secretion inhibitory effect of the compounds according to the present invention on the rats suffering from experimental allergic rhinitis.
Wistar rats were passively sensitized by subcutaneously injecting anti-Cryptomeria Japonica-As serum of rat. After anesthetizing the rat with pentobarbital sodium, they were fixed while lying them on their back and the cervixes thereof were subjected to median incision. A polyethylene tube having an outer diameter of 1 mm was inserted into the internal nares of each rat through the incised portion of trachea, one end thereof was connected to a perfusion pump and sterilized physiologic saline warmed at 37° C. was perfused therethrough at a flow rate of 0.25 ml/min.
Then, 0.5 ml/100 g body weight of 4% brilliant blue was injected into the rat through the caudal vein, then the perfusate was recovered for 10 minutes and the concentration of the dye was determined which was regarded as the Ag (-) value of the control. 1 ml of the antigen extracted from pollen of Japanese cedar (1 micro liter per ml) was sprayed in both internal nares by means of an atomizer for internal nares, the antigen remaining in the internal nares was washed out with physiologic saline and the perfusate was then recovered for 30 minutes and the concentration of the dye was determined to estimate Ag (+) value of the control.
The compound to be tested were dissolved in 0.15 M phosphate buffer so as to form a solution of a desired concentration. Each of the solutions thus prepared was sprayed in both internal nares in an amound of 0.5 ml/100g body weight at the time of 5 minutes before the spray of the antigen and the concentration of the dye was determined on each sample. In this connection, the measurement of the dye concentration was effected according to the spectrophotometric method developed by M. Kojima et al. (Allergy, 1986, Vol. 35, pp. 180-187).

[5] = tested on: allergic conjunctivitis of guinea pigs; assay: Allergic conjunctivitis, visual observation of inflammatory reaction of the eye (Test 4); type: in vivo, Hartley guinea pigs; conditions: MTCC 10^-3 g/ml, DSCG 2×10^-2 g/ml, dropped on the eye after antigen
Method: as §1, §2, §3

[6] = tested on: Mouse; assay: Acute toxicity test, mouse (Test 5); type: in vivo; conditions: Female, 14 days observation
Method: (§4) MTCC was administered to ddY Mice (body weight 20 to 23 g; 10 animals per test group) and Wistar rats (body weight 110 to 130 g; 10 animals per test group) through intravenous and oral routes and it was also administered to Beagle dogs (7 months old; 3 animals per test group) through oral route.
(§5) MTCC was administered to rats and mice in the form of a solution thereof in 0.1 M phosphate buffer in the case of intravenous administration and in the form of a suspension in 0.5% CMC-Na in the case of oral administration. While it was orally administered to dogs in the form of a capsule filled with the original powder.

[7] = Acute toxicity test, mouse (Test 5); type: in vivo; conditions: mouse, in vivo, Male, 14 days observation
Method: as §4, §5

[8] = tested on: Rat; assay: Acute toxicity test, rat (Test 5); type: in vivo; conditions: Female, 14 days observation
Method: as §4, §5

[9] = Acute toxicity test, rat (Test 5); type: in vivo; conditions: rat, in vivo, Male, 14 days observation
Method: as §4, §5

[10] = tested on: Dog; assay: Acute toxicity test, dog (Test 5); type: in vivo; conditions: Female, p.o. (capsule); 14 days observation
Method: as §4, §5

[11] = Acute toxicity test, dog (Test 5); type: in vivo; conditions: dog, in vivo, po; Male, p.o. (capsule); 14 days observation
Method: as §4, §5

[12] = Water solubility / hydrophilicity (statement in words); type: physicochemical
[13] = After Dropping of Antigen (before compound)
[14] = After Dropping of Compound, MTCC 10^-3 g/ml, DSCG 2×10^-2 g/ml

Compound | Rate of Inhibition of Degranulation Rd (%) ([2]; Concn. 10^-4 g/ml) | Rate of Inhibition of Degranulation Rd (%) ([2]; Concn. 10^-5 g/ml) | Rate of Inhibition of Degranulation Rd (%) ([2]; Concn. 10^-6 g/ml) | Rate of Inhibition of Degranulation Rd (%) ([2]; Concn. 10^-7 g/ml) | Rate of Inhibition of Degranulation Rd (%) ([2]; Concn. 10^-8 g/ml) | Histamine Content in Lacrimal Fluid [3, 13] | Histamine Content in Lacrimal Fluid [3, 14] | Dye Concentration ([4]; Concn. 10^-4 g/ml) | Dye Concentration ([4]; Concn. 10^-5 g/ml) | Dye Concentration ([4]; Concn. 10^-6 g/ml) | Dye Concentration ([4]; Concn. 10^-7 g/ml) | Dye Concentration ([4]; Concn. 10^-8 g/ml) | Therapeutic effect on swelling and congestion of the conjunctiva (visual observation) [5] | further results
CCCCOC(=O)C(=O)Nc1cccc(-c2nnn[nH]2)c1 [MTB, Butyl 3(1H--tetrazol5-yl)oxanilate] | – | – | – | – | – | – | – | – | – | – | – | – | – | Water solubility (in words) [1]: hydrophobic or less soluble in water
O=C(O)c1cc(=O)c2c(OCC(O)COc3cccc4oc(C(=O)O)cc(=O)c34)cccc2o1 [DSCG, Disodium Chromoglycate, reference compound] | 90.3% | 71.5% | 39.4% | 8.1% | -1.7% | 6.7 ng | 6.4 ng | 0.65 micro gr./ml | 0.89 micro gr./ml | 1.01 micro gr./ml | 1.44 micro gr./ml | 1.77 micro gr./ml | relatively low therapeutic effect | –
O=C(O)C(=O)Nc1cccc(-c2nnn[nH]2)c1 [MTCC, 3-(1H-tetrazol-5-yl)oxanilic acid] | 94.3% | 75.1% | 33.0% | 15.0% | -1.4% | 6.3 ng | 2.4 ng | 0.64 micro gr./ml | 0.85 micro gr./ml | 0.99 micro gr./ml | 1.37 micro gr./ml | 1.74 micro gr./ml | excellent therapeutic effect | Histamine content in the lacrimal fluid (in words) ([3]; by the administration of MTCC, 10^-3 g/ml): substantially reduced; Acute Toxicity LD50 ([6]; i.v.): > 225 mg/kg; Acute Toxicity LD50 ([6]; p.o.): > 2000 mg/kg; LD50 at 336 h ([7]; iv): > 225 mg/kg; LD50 at 336 h ([7]; po): > 2000 mg/kg; Acute Toxicity LD50 ([8]; i.v.): > 180 mg/kg; Acute Toxicity LD50 ([8]; p.o.): > 2000 mg/kg; LD50 at 336 h ([9]; iv): > 180 mg/kg; LD50 at 336 h ([9]; po): > 2000 mg/kg; Acute Toxicity LD50 [10]: > 2000 mg/kg; LD50 at 336 h [11]: > 2000 mg/kg; Water solubility (in words) [12]: hydrophyilic or soluble in water
